According to ChEMBL document CHEMBL1201861, “Genomics of Drug Sensitity in Cancer screening data, Wellcome Trust Sanger Institute”:

Tested on: OCUB-M;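 also: growth inhibition of the cancer cell line, read out through a cell viability assay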
Test: cells
Assay type: functional, cell-based
Conditions: Homo sapiens
Description: SANGER: Inhibition of human OCUB-M cell growth in a cell viability assay.

Row | Compound | IC50
1 | COC(=O)[C@H](CCSC)NC(=O)c1ccc(NC[C@@H](N)CS)cc1-c1ccccc1 | > 1020 nM

Tested on: HOP-62;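 also: cell growth inhibition determined with a viability assay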
Test: cells
Assay type: functional, cell-based, Homo sapiens
Conditions: Homo sapiens, HOP-62
Description: SANGER: Inhibition of human HOP-62 cell growth in a cell viability assay.

Row | Compound | IC50
2 | COC(=O)[C@H](CCSC)NC(=O)c1ccc(NC[C@@H](N)CS)cc1-c1ccccc1 | > 1020 nM

Tested on: NB5;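 also: growth inhibition of NB5 cells, read out as cell viability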
Test: cells
Assay type: functional, cell-based, Homo sapiens
Conditions: Homo sapiens, NB5
Description: SANGER: Inhibition of human NB5 cell growth in a cell viability assay.

Row | Compound | IC50
3 | COC(=O)[C@H](CCSC)NC(=O)c1ccc(NC[C@@H](N)CS)cc1-c1ccccc1 | > 1020 nM

Tested on: NCI-H1304;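 also: growth inhibition of the cancer cell line, measured in a cell viability assay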
Test: cells
Assay type: functional, cell-based, Homo sapiens
Conditions: Homo sapiens, NCI-H1304
Description: SANGER: Inhibition of human NCI-H1304 cell growth in a cell viability assay.

Row | Compound | IC50
4 | COC(=O)[C@H](CCSC)NC(=O)c1ccc(NC[C@@H](N)CS)cc1-c1ccccc1 | > 1020 nM

Tested on: GOTO;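 also: growth inhibition of GOTO cells, read out by a cell viability assay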
Test: cells
Assay type: functional, cell-based, Homo sapiens
Conditions: Homo sapiens, GOTO
Description: SANGER: Inhibition of human GOTO cell growth in a cell viability assay.

Row | Compound | IC50
5 | COC(=O)[C@H](CCSC)NC(=O)c1ccc(NC[C@@H](N)CS)cc1-c1ccccc1 | > 1020 nM

Tested on: LB771-HNC;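 also: growth inhibition of LB771-HNC human cells, read out with a cell viability assay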
Test: cells
Assay type: functional, cell-based
Conditions: Homo sapiens
Description: SANGER: Inhibition of human LB771-HNC cell growth in a cell viability assay.

Row | Compound | IC50
6 | COC(=O)[C@H](CCSC)NC(=O)c1ccc(NC[C@@H](N)CS)cc1-c1ccccc1 | > 1020 nM

Tested on: GT3TKB;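 also: growth inhibition of the cell line, read out with a cell viability assay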
Test: cells
Assay type: functional, cell-based, Homo sapiens
Conditions: Homo sapiens, GT3TKB
Description: SANGER: Inhibition of human GT3TKB cell growth in a cell viability assay.

Row | Compound | IC50
7 | COC(=O)[C@H](CCSC)NC(=O)c1ccc(NC[C@@H](N)CS)cc1-c1ccccc1 | > 1020 nM

Tested on: SH-4;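 also: growth inhibition of SH-4 cells, read out with a cell viability assay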
Test: cells
Assay type: functional, cell-based
Conditions: Homo sapiens
Description: SANGER: Inhibition of human SH-4 cell growth in a cell viability assay.

Row | Compound | IC50
8 | COC(=O)[C@H](CCSC)NC(=O)c1ccc(NC[C@@H](N)CS)cc1-c1ccccc1 | > 1020 nM

Tested on: C2BBe1;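 also: growth inhibition of C2BBe1 cells, read out through a viability assay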
Test: cells
Assay type: functional, cell-based, Homo sapiens
Conditions: Homo sapiens, C2BBe1
Description: SANGER: Inhibition of human C2BBe1 cell growth in a cell viability assay.

Row | Compound | IC50
9 | COC(=O)[C@H](CCSC)NC(=O)c1ccc(NC[C@@H](N)CS)cc1-c1ccccc1 | > 1020 nM

Tested on: ALL-PO;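 also: growth inhibition of ALL-PO cells, read out by a cell viability assay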
Test: cells
Assay type: functional, cell-based, Homo sapiens
Conditions: Homo sapiens, ALL-PO
Description: SANGER: Inhibition of human ALL-PO cell growth in a cell viability assay.

Row | Compound | IC50
10 | COC(=O)[C@H](CCSC)NC(=O)c1ccc(NC[C@@H](N)CS)cc1-c1ccccc1 | > 1020 nM

Tested on: MPP-89;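 also: growth inhibition of human MPP-89 cells, read out with a cell viability assay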
Test: cells
Assay type: functional, cell-based, Homo sapiens
Conditions: Homo sapiens, MPP-89
Description: SANGER: Inhibition of human MPP-89 cell growth in a cell viability assay.

Row | Compound | IC50
11 | COC(=O)[C@H](CCSC)NC(=O)c1ccc(NC[C@@H](N)CS)cc1-c1ccccc1 | > 1020 nM

Tested on: COLO-684
Test: cells
Assay type: functional, cell-based, Homo sapiens
Conditions: Homo sapiens, COLO-684
Description: SANGER: Inhibition of human COLO-684 cell growth in a cell viability assay.

Row | Compound | IC50
12 | COC(=O)[C@H](CCSC)NC(=O)c1ccc(NC[C@@H](N)CS)cc1-c1ccccc1 | > 1020 nM

Tested on: LAN-6;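 also: growth inhibition of LAN-6 cells, determined with a cell viability assay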
Test: cells
Assay type: functional, cell-based, Homo sapiens
Conditions: Homo sapiens, LAN-6
Description: SANGER: Inhibition of human LAN-6 cell growth in a cell viability assay.

Row | Compound | IC50
13 | COC(=O)[C@H](CCSC)NC(=O)c1ccc(NC[C@@H](N)CS)cc1-c1ccccc1 | > 1020 nM

Tested on: GB-1;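 also: growth of GB-1 cells judged by a viability assay, IC50 marks the concentration inhibiting growth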
Test: cells
Assay type: functional, cell-based, Homo sapiens
Conditions: Homo sapiens, GB-1
Description: SANGER: Inhibition of human GB-1 cell growth in a cell viability assay.

Row | Compound | IC50
14 | COC(=O)[C@H](CCSC)NC(=O)c1ccc(NC[C@@H](N)CS)cc1-c1ccccc1 | > 1020 nM

Tested on: Lu-65;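 also: growth inhibition of Lu-65 cancer cells, read out by a cell viability assay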
Test: cells
Assay type: functional, cell-based, Homo sapiens
Conditions: Homo sapiens, Lu-65
Description: SANGER: Inhibition of human LU-65 cell growth in a cell viability assay.

Row | Compound | IC50
15 | COC(=O)[C@H](CCSC)NC(=O)c1ccc(NC[C@@H](N)CS)cc1-c1ccccc1 | > 1020 nM

Tested on: KS-1;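 also: growth inhibition of KS-1 cells, read out with a cell viability assay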
Test: cells
Assay type: functional, cell-based
Conditions: Homo sapiens
Description: SANGER: Inhibition of human KS-1 cell growth in a cell viability assay.

Row | Compound | IC50
16 | COC(=O)[C@H](CCSC)NC(=O)c1ccc(NC[C@@H](N)CS)cc1-c1ccccc1 | > 1020 nM

Tested on: KGN;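 also: growth inhibition of KGN cells, read out with a cell viability assay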
Test: cells
Assay type: functional, cell-based, Homo sapiens
Conditions: Homo sapiens, KGN
Description: SANGER: Inhibition of human KGN cell growth in a cell viability assay.

Row | Compound | IC50
17 | COC(=O)[C@H](CCSC)NC(=O)c1ccc(NC[C@@H](N)CS)cc1-c1ccccc1 | > 1020 nM

Tested on: KE-37;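 also: growth inhibition of KE-37 cells, read out with a cell viability assay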
Test: cells
Assay type: functional, cell-based, Homo sapiens
Conditions: Homo sapiens, KE-37
Description: SANGER: Inhibition of human KE-37 cell growth in a cell viability assay.

Row | Compound | IC50
18 | COC(=O)[C@H](CCSC)NC(=O)c1ccc(NC[C@@H](N)CS)cc1-c1ccccc1 | > 1020 nM

Tested on: MZ2-MEL;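 also: growth inhibition of MZ2-MEL cells read out with a cell viability assay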
Test: cells
Assay type: functional, cell-based, Homo sapiens
Conditions: Homo sapiens, MZ2-MEL
Description: SANGER: Inhibition of human MZ2-MEL cell growth in a cell viability assay.

Row | Compound | IC50
19 | COC(=O)[C@H](CCSC)NC(=O)c1ccc(NC[C@@H](N)CS)cc1-c1ccccc1 | > 1020 nM

Tested on: DJM-1;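 also: growth inhibition of human DJM-1 cells, read out by a cell viability assay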
Test: cells
Assay type: functional, cell-based, Homo sapiens
Conditions: Homo sapiens, DJM-1
Description: SANGER: Inhibition of human DJM-1 cell growth in a cell viability assay.

Row | Compound | IC50
20 | COC(=O)[C@H](CCSC)NC(=O)c1ccc(NC[C@@H](N)CS)cc1-c1ccccc1 | > 1020 nM

Tested on: OVCAR-4;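 also: growth inhibition of human OVCAR-4 cells, measured with a cell viability assay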
Test: cells
Assay type: functional, cell-based, Homo sapiens
Conditions: Homo sapiens, OVCAR-4
Description: SANGER: Inhibition of human OVCAR-4 cell growth in a cell viability assay.

Row | Compound | IC50
21 | COC(=O)[C@H](CCSC)NC(=O)c1ccc(NC[C@@H](N)CS)cc1-c1ccccc1 | > 1020 nM

Tested on: MC116;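 also: growth inhibition of MC116 cells, read out with a cell viability assay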
Test: cells
Assay type: functional, cell-based, Homo sapiens
Conditions: Homo sapiens, MC116
Description: SANGER: Inhibition of human MC116 cell growth in a cell viability assay.

Row | Compound | IC50
22 | COC(=O)[C@H](CCSC)NC(=O)c1ccc(NC[C@@H](N)CS)cc1-c1ccccc1 | > 1020 nM

Tested on: HL-60;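 also: growth inhibition of human HL-60 cells, read out with a cell viability assay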
Test: cells
Assay type: functional, cell-based, Homo sapiens
Conditions: Homo sapiens, HL-60
Description: SANGER: Inhibition of human HL-60 cell growth in a cell viability assay.

Row | Compound | IC50
23 | COC(=O)[C@H](CCSC)NC(=O)c1ccc(NC[C@@H](N)CS)cc1-c1ccccc1 | > 1020 nM

Tested on: NCI-H2126;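 also: growth inhibition of the cancer cell line, determined with a cell viability readout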
Test: cells
Assay type: functional, cell-based, Homo sapiens
Conditions: Homo sapiens, NCI-H2126
Description: SANGER: Inhibition of human NCI-H2126 cell growth in a cell viability assay.

Row | Compound | IC50
24 | COC(=O)[C@H](CCSC)NC(=O)c1ccc(NC[C@@H](N)CS)cc1-c1ccccc1 | > 1020 nM

Tested on: KARPAS-45;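 also: inhibition of cell line growth, read out through a viability assay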
Test: cells
Assay type: functional, cell-based, Homo sapiens
Conditions: Homo sapiens, KARPAS-45
Description: SANGER: Inhibition of human KARPAS-45 cell growth in a cell viability assay.

Row | Compound | IC50
25 | COC(=O)[C@H](CCSC)NC(=O)c1ccc(NC[C@@H](N)CS)cc1-c1ccccc1 | > 1020 nM

Tested on: NKM-1;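 also: growth inhibition of NKM-1 cells, read out with a cell viability assay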
Test: cells
Assay type: functional, cell-based, Homo sapiens
Conditions: Homo sapiens, NKM-1
Description: SANGER: Inhibition of human NKM-1 cell growth in a cell viability assay.

Row | Compound | IC50
26 | COC(=O)[C@H](CCSC)NC(=O)c1ccc(NC[C@@H](N)CS)cc1-c1ccccc1 | > 1020 nM

Tested on: SNU-C2B;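 also: cell viability readout used to measure compound-driven suppression of SNU-C2B cell proliferation, IC50 marking half-maximal growth inhibition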
Test: cells
Assay type: functional, cell-based
Conditions: Homo sapiens
Description: SANGER: Inhibition of human SNU-C2B cell growth in a cell viability assay.

Row | Compound | IC50
27 | COC(=O)[C@H](CCSC)NC(=O)c1ccc(NC[C@@H](N)CS)cc1-c1ccccc1 | > 1020 nM

Tested on: NCI-H1395;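 also: cell viability assay read-out quantifying reduced proliferation of human NCI-H1395 cells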
Test: cells
Assay type: functional, cell-based, Homo sapiens
Conditions: Homo sapiens, NCI-H1395
Description: SANGER: Inhibition of human NCI-H1395 cell growth in a cell viability assay.

Row | Compound | IC50
28 | COC(=O)[C@H](CCSC)NC(=O)c1ccc(NC[C@@H](N)CS)cc1-c1ccccc1 | > 1020 nM

Tested on: VA-ES-BJ;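 also: growth inhibition of the VA-ES-BJ cell line, read out by a cell viability assay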
Test: cells
Assay type: functional, cell-based, Homo sapiens
Conditions: Homo sapiens, VA-ES-BJ
Description: SANGER: Inhibition of human VA-ES-BJ cell growth in a cell viability assay.

Row | Compound | IC50
29 | COC(=O)[C@H](CCSC)NC(=O)c1ccc(NC[C@@H](N)CS)cc1-c1ccccc1 | > 1020 nM

Tested on: TE-10;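 also: growth inhibition of TE-10 cells, measured by a cell viability assay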
Test: cells
Assay type: functional, cell-based, Homo sapiens
Conditions: Homo sapiens, TE-10
Description: SANGER: Inhibition of human TE-10 cell growth in a cell viability assay.

Row | Compound | IC50
30 | COC(=O)[C@H](CCSC)NC(=O)c1ccc(NC[C@@H](N)CS)cc1-c1ccccc1 | > 1020 nM

Tested on: MMAC-SF;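 also: growth inhibition of human MMAC-SF cells, read out with a cell viability assay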
Test: cells
Assay type: functional, cell-based
Conditions: Homo sapiens
Description: SANGER: Inhibition of human MMAC-SF cell growth in a cell viability assay.

Row | Compound | IC50
31 | COC(=O)[C@H](CCSC)NC(=O)c1ccc(NC[C@@H](N)CS)cc1-c1ccccc1 | > 1020 nM

Tested on: DMS-114
Test: cells
Assay type: functional, cell-based, Homo sapiens
Conditions: Homo sapiens, DMS-114

Row | Compound | IC50
32 | COC(=O)[C@H](CCSC)NC(=O)c1ccc(NC[C@@H](N)CS)cc1-c1ccccc1 | > 1020 nM

Tested on: RCC10RGB;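 also: growth inhibition of human RCC10RGB cells, read out by a cell viability assay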
Test: cells
Assay type: functional, cell-based, Homo sapiens
Conditions: Homo sapiens, RCC10RGB
Description: SANGER: Inhibition of human RCC10RGB cell growth in a cell viability assay.

Row | Compound | IC50
33 | COC(=O)[C@H](CCSC)NC(=O)c1ccc(NC[C@@H](N)CS)cc1-c1ccccc1 | > 1020 nM

Tested on: NCI-H747;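 also: growth inhibition of human NCI-H747 cells, read out by a cell viability assay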
Test: cells
Assay type: functional, cell-based, Homo sapiens
Conditions: Homo sapiens, NCI-H747
Description: SANGER: Inhibition of human NCI-H747 cell growth in a cell viability assay.

Row | Compound | IC50
34 | COC(=O)[C@H](CCSC)NC(=O)c1ccc(NC[C@@H](N)CS)cc1-c1ccccc1 | > 1020 nM

Tested on: MOLT-16;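 also: growth inhibition of human MOLT-16 cells, read out with a cell viability assay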
Test: cells
Assay type: functional, cell-based, Homo sapiens
Conditions: Homo sapiens, MOLT-16
Description: SANGER: Inhibition of human MOLT-16 cell growth in a cell viability assay.

Row | Compound | IC50
35 | COC(=O)[C@H](CCSC)NC(=O)c1ccc(NC[C@@H](N)CS)cc1-c1ccccc1 | > 1020 nM

Tested on: BE-13;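 also: growth inhibition of human BE-13 cells, measured with a cell viability assay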
Test: cells
Assay type: functional, cell-based, Homo sapiens
Conditions: Homo sapiens, BE-13
Description: SANGER: Inhibition of human BE-13 cell growth in a cell viability assay.

Row | Compound | IC50
36 | COC(=O)[C@H](CCSC)NC(=O)c1ccc(NC[C@@H](N)CS)cc1-c1ccccc1 | > 1020 nM

Tested on: BB49-HNC;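 also: cell viability assay read-out, reported as inhibition of BB49-HNC cell growth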
Test: cells
Assay type: functional, cell-based, Homo sapiens
Conditions: Homo sapiens, BB49-HNC
Description: SANGER: Inhibition of human BB49-HNC cell growth in a cell viability assay.

Row | Compound | IC50
37 | COC(=O)[C@H](CCSC)NC(=O)c1ccc(NC[C@@H](N)CS)cc1-c1ccccc1 | > 1020 nM

Tested on: NB6;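 also: growth inhibition of NB6 cells, read out by a cell viability assay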
Test: cells
Assay type: functional, cell-based, Homo sapiens
Conditions: Homo sapiens, NB6
Description: SANGER: Inhibition of human NB6 cell growth in a cell viability assay.

Row | Compound | IC50
38 | COC(=O)[C@H](CCSC)NC(=O)c1ccc(NC[C@@H](N)CS)cc1-c1ccccc1 | > 1020 nM

Tested on: RXF 393;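 also: growth inhibition of human RXF 393 cells, read out with a cell viability assay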
Test: cells
Assay type: functional, cell-based, Homo sapiens
Conditions: Homo sapiens, RXF 393
Description: SANGER: Inhibition of human RXF393 cell growth in a cell viability assay.

Row | Compound | IC50
39 | COC(=O)[C@H](CCSC)NC(=O)c1ccc(NC[C@@H](N)CS)cc1-c1ccccc1 | > 1020 nM

Tested on: GR-ST
Test: cells
Assay type: functional, cell-based, Homo sapiens
Conditions: Homo sapiens, GR-ST
Description: SANGER: Inhibition of human GR-ST cell growth in a cell viability assay.

Row | Compound | IC50
40 | COC(=O)[C@H](CCSC)NC(=O)c1ccc(NC[C@@H](N)CS)cc1-c1ccccc1 | > 1020 nM

Tested on: SF-126;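 also: growth inhibition of human SF126 cells, read out with a cell viability assay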
Test: cells
Assay type: functional, cell-based, Homo sapiens
Conditions: Homo sapiens, SF-126
Description: SANGER: Inhibition of human SF126 cell growth in a cell viability assay.

Row | Compound | IC50
41 | COC(=O)[C@H](CCSC)NC(=O)c1ccc(NC[C@@H](N)CS)cc1-c1ccccc1 | > 1020 nM

Tested on: GI-1;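 also: growth inhibition of human GI-1 cells, measured with a cell viability readout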
Test: cells
Assay type: functional, cell-based, Homo sapiens
Conditions: Homo sapiens, GI-1
Description: SANGER: Inhibition of human GI-1 cell growth in a cell viability assay.

Row | Compound | IC50
42 | COC(=O)[C@H](CCSC)NC(=O)c1ccc(NC[C@@H](N)CS)cc1-c1ccccc1 | > 1020 nM

Tested on: TGBC24TKB;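 also: growth inhibition of human TGBC24TKB cells, read out with a cell viability assay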
Test: cells
Assay type: functional, cell-based
Conditions: Homo sapiens
Description: SANGER: Inhibition of human TGBC24TKB cell growth in a cell viability assay.

Row | Compound | IC50
43 | COC(=O)[C@H](CCSC)NC(=O)c1ccc(NC[C@@H](N)CS)cc1-c1ccccc1 | > 1020 nM

Tested on: EW-16;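 also: growth inhibition of human EW-16 cells, read out as cell viability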
Test: cells
Assay type: functional, cell-based, Homo sapiens
Conditions: Homo sapiens, EW-16
Description: SANGER: Inhibition of human EW-16 cell growth in a cell viability assay.

Row | Compound | IC50
44 | COC(=O)[C@H](CCSC)NC(=O)c1ccc(NC[C@@H](N)CS)cc1-c1ccccc1 | > 1020 nM

Tested on: LS-1034
Test: cells
Assay type: functional, cell-based, Homo sapiens
Conditions: Homo sapiens, LS-1034
Description: SANGER: Inhibition of human LS-1034 cell growth in a cell viability assay.

Row | Compound | IC50
45 | COC(=O)[C@H](CCSC)NC(=O)c1ccc(NC[C@@H](N)CS)cc1-c1ccccc1 | > 1020 nM

Tested on: SK-MEL-1;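 also: growth inhibition of human SK-MEL-1 cells, read out by a cell viability assay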
Test: cells
Assay type: functional, cell-based, Homo sapiens
Conditions: Homo sapiens, SK-MEL-1
Description: SANGER: Inhibition of human SK-MEL-1 cell growth in a cell viability assay.

Row | Compound | IC50
46 | COC(=O)[C@H](CCSC)NC(=O)c1ccc(NC[C@@H](N)CS)cc1-c1ccccc1 | > 1020 nM

Tested on: no-11;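 also: growth inhibition of human NO-11 cells, read out with a cell viability assay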
Test: cells
Assay type: functional, cell-based, Homo sapiens
Conditions: Homo sapiens
Description: SANGER: Inhibition of human no-11 cell growth in a cell viability assay.

Row | Compound | IC50
47 | COC(=O)[C@H](CCSC)NC(=O)c1ccc(NC[C@@H](N)CS)cc1-c1ccccc1 | > 1020 nM

Tested on: KLE;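 also: growth inhibition of human KLE cells, read out with a cell viability assay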
Test: cells
Assay type: functional, cell-based
Conditions: Homo sapiens
Description: SANGER: Inhibition of human KLE cell growth in a cell viability assay.

Row | Compound | IC50
48 | COC(=O)[C@H](CCSC)NC(=O)c1ccc(NC[C@@H](N)CS)cc1-c1ccccc1 | > 1020 nM

Tested on: GI-ME-N;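 also: growth inhibition of human GI-ME-N cells, read out with a cell viability assay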
Test: cells
Assay type: functional, cell-based, Homo sapiens
Conditions: Homo sapiens, GI-ME-N
Description: SANGER: Inhibition of human GI-ME-N cell growth in a cell viability assay.

Row | Compound | IC50
49 | COC(=O)[C@H](CCSC)NC(=O)c1ccc(NC[C@@H](N)CS)cc1-c1ccccc1 | > 1020 nM

Tested on: COR-L88;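 also: growth inhibition of COR-L88 cells, read out with a cell viability assay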
Test: cells
Assay type: functional, cell-based, Homo sapiens
Conditions: Homo sapiens, COR-L88
Description: SANGER: Inhibition of human COR-L88 cell growth in a cell viability assay.

Row | Compound | IC50
50 | COC(=O)[C@H](CCSC)NC(=O)c1ccc(NC[C@@H](N)CS)cc1-c1ccccc1 | > 1020 nM

Tested on: EW-11;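 also: growth inhibition of human EW-11 cells, measured with a cell viability assay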
Test: cells
Assay type: functional, cell-based, Homo sapiens
Conditions: Homo sapiens, EW-11
Description: SANGER: Inhibition of human EW-11 cell growth in a cell viability assay.

Row | Compound | IC50
51 | COC(=O)[C@H](CCSC)NC(=O)c1ccc(NC[C@@H](N)CS)cc1-c1ccccc1 | > 1020 nM
